Data taken from patent US11028090B2 (Dong Wha Pharm. Co., Ltd., priority 2017, dated 2021).
Where two headings read alike, the source gives them in different places.

Key:
[1] = biological target: BRD4 (BD1+BD2) bromodomain (Homo sapiens (Human), UniProt O60885); assay: BRD4 binding inhibition (AlphaScreen, GST-BRD4 vs tetraacetylated histone H4 peptide)
How it was run: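 GST-BRD4 (BD1+BD2) and biotinylated tetraacetyl-histone H4 peptide, each at 100 nM in HEPES pH 7.4 buffer with BSA and DTT, were combined with compound. Glutathione acceptor and streptavidin donor beads were added, then incubated 30 min at room temperature in the dark. Read-out was AlphaScreen signal.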

[2] = tested on: acute myelogenous leukemia cells (MV-4-11 cells); assay: Cytotoxicity to acute myelogenous leukemia cells (MV-4-11 cells), CCK-8; conditions: Homo sapiens, MV4-11, 72 h
[3] = GST-BRD4 (BD1+BD2) / biotinylated acetyl-histone H4 (Lys5,8,12,16) peptide, read-out: IC50, BRD4 binding inhibition
[4] = GST-BRD4 (BD1+BD2) vs biotinylated acetyl-histone H4 peptide, AlphaScreen, read-out: BRD4 IC50
[5] = read-out: MV-4-11 Cytotoxicity IC50
[6] = read-out: IC50, cytotoxicity against acute myelogenous leukemia cells

SMILES | IC50 [1, 3] [µM] | IC50 [1, 4] [µM] | IC50 [2, 5] [µM] | IC50 [2, 6] [µM]
CCC(C)CNC(=O)CCCCNc1nc2cc(OC)c(OC)cc2n2c(C)nnc12 (stereo not drawn) [Example 649, 5-(7,8-dimethoxy-1-methyl-[1,2,4]triazolo[4,3-a]quinoxaline-4-ylamino)-pentanoic acid-(2-methyl-butyl)-amide] | ≤ 0.05 | 0.023 | 0.16 | ≤ 0.2
COc1c(C)ccc2c1nc(NCCCCNC(=O)c1ccccc1)c1nnc(C)n12 [Example 138, N-[4-(6-methoxy-1,7-dimethyl-[1,2,4]triazolo[4,3-a]quinoxaline-4-ylamino)-butyl]-benzamide] | – | 0.051 | 0.86 | –
CCC(CC)C(=O)NCCCCNc1nc2cc(OC)c(OC)cc2n2c(C)nnc12 [Example 78, N-[4-(7,8-dimethoxy-1-methyl-[1,2,4]triazolo[4,3-a]quinoxaline-4-ylamino)-butyl]-2-ethyl-butyramide] | ≤ 0.05 | 0.02 | 0.14 | ≤ 0.2
COc1ccc2c(c1)nc(NCCCCNC(=O)Cc1cccs1)c1nnc(C)n12 [Example 307, N-[4-(7-methoxy-1-methyl-[1,2,4]triazolo[4,3-a]quinoxaline-4-ylamino)-butyl]-2-thiophene-2-yl-acetamide] | ≤ 0.05 | 0.022 | 0.01 | ≤ 0.2
Cc1nnc2c(NCCCCNC(=O)CC(C)C)nc3ccc(NCCCC#N)cc3n12 [Example 553, N-{4-[8-(3-cyano-propylamino)-1-methyl-[1,2,4]triazolo[4,3-a]quinoxaline-4-ylamino]-butyl}-3-methyl-butyramide] | ≤ 0.05 | 0.024 | 0.174 | ≤ 0.2
COc1cc2nc(NCCCCNC(=O)Cc3ccco3)c3nnc(C)n3c2cc1OC [Example 85, N-[4-(7,8-dimethoxy-1-methyl-[1,2,4]triazolo[4,3-a]quinoxaline-4-ylamino)-butyl]-2-furan-2-yl-acetamide] | ≤ 0.05 | 0.027 | 0.05 | ≤ 0.2
Cc1nnc2c(NCCCCNC(=O)CC(C)C)nc3ccc([N+](=O)[O-])cc3n12 [Example 550, 3-methyl-N-[4-(1-methyl-8-nitro-[1,2,4]triazolo[4,3-a]quinoxaline-4-ylamino)-butyl]-butyramide] | ≤ 0.05 | 0.021 | 0.157 | ≤ 0.2
Cc1nnc2c(NCCCCNC(=O)c3ccccc3)nc3ccc(OC(F)(F)F)cc3n12 [Example 267, N-[4-(1-methyl-8-trifluoromethoxy-[1,2,4]triazolo[4,3-a]quinoxaline-4-ylamino)-butyl]-benzamide] | ≤ 0.05 | 0.039 | 0.57 | –
COCCOc1ccc2c(c1)nc(NCCCCNC(=O)c1ccccc1Cl)c1nnc(C)n12 [Example 411, 2-chloro-N-{4-[7-(2-methoxy-ethoxy)-1-methyl-[1,2,4]triazolo[4,3-a]quinoxaline-4-ylamino]-butyl}-benzamide] | ≤ 0.05 | 0.019 | 0.15 | ≤ 0.2
COc1cc2nc(NCCCCNC(=O)CC(C)C)c3nnc(C)n3c2cc1NC(=O)Nc1ccccc1 [Example 568, N-{4-[7-methoxy-1-methyl-8-(3-phenyl-ureido)-[1,2,4]triazolo[4,3-a]quinoxaline-4-ylamino]-butyl}-3-methyl-butyramide] | ≤ 0.05 | 0.028 | 0.658 | –
Cc1nnc2c(NCCCCNC(=O)OC(C)(C)C)nc3ccccc3n12 [Example 1, [4-(1-methyl-[1,2,4]triazolo[4,3-a]quinoxaline-4-ylamino)-butyl]-carbamic acid-tert-butylester] | – | 0.074 | 0.98 | –

Molecules with a lower IC50 [1, 4], results first:

IC50 [1, 3] [µM] | IC50 [1, 4] [µM] | SMILES | IC50 [2, 5] [µM] | IC50 [2, 6] [µM]
≤ 0.01 | 0.003 | COCCOc1ccc2c(c1)nc(NCCCCNC(=O)NC(C)C)c1nnc(C)n12 [Example 422, 1-isopropyl-3-{4-[7-(2-methoxy-ethoxy)-1-methyl-[1,2,4]triazolo[4,3-a]quinoxaline-4-ylamino]-butyl}-urea] | 0.45 | –
≤ 0.05 | 0.017 | COCCOc1ccc2c(c1)nc(NCCCCNC(=O)NC1CCCCC1)c1nnc(C)n12 [Example 426, 1-cyclohexyl-3-{4-[7-(2-methoxy-ethoxy)-1-methyl-[1,2,4]triazolo[4,3-a]quinoxaline-4-ylamino]-butyl}-urea] | 0.19 | ≤ 0.2
≤ 0.05 | 0.012 | COCCOc1ccc2c(c1)nc(NCCCCNC(=O)c1cccc(F)c1)c1nnc(C)n12 [Example 410, 3-fluoro-N-{4-[7-(2-methoxy-ethoxy)-1-methyl-[1,2,4]triazolo[4,3-a]quinoxaline-4-ylamino]-butyl}-benzamide] | 0.79 | –
≤ 0.01 | 0.008 | Cc1nnc2c(NCCCCNC(=O)CC(C)C)nc3cc(NS(C)(=O)=O)ccc3n12 [Example 257, N-[4-(7-methanesulfonylamino-1-methyl-[1,2,4]triazolo[4,3-a]quinoxaline-4-ylamino)-butyl]-3-methyl-butyramide] | 0.327 | –
≤ 0.05 | 0.011 | Cc1nnc2c(NCCCCNC(=O)[C@H](O)C(C)C)nc3cc(-c4nc5ccccc5n4C)ccc3n12 [Example 235, 2-(R)-hydroxy-3-methyl-N-{4-[1-methyl-7-(1-methyl-1H-benzimidazole-2-yl)-[1,2,4]triazolo[4,3-a]quinoxaline-4-ylamino]-butyl}-butyramide] | 0.39 | –
≤ 0.01 | 0.005 | COCCOc1ccc2c(c1)nc(NCCCCNC(=O)CC(C)(C)C)c1nnc(C)n12 [Example 382, N-{4-[7-(2-methoxy-ethoxy)-1-methyl-[1,2,4]triazolo[4,3-a]quinoxaline-4-ylamino]-butyl}-3,3-dimethyl-butyramide] | 0.84 | –
≤ 0.01 | 0.005 | Cc1nnc2c(NCCCCNC(=O)[C@@H](O)C(C)C)nc3ccccc3n12 [Example 10, 2-(S)-hydroxy-N-[4-(1-methyl-[1,2,4]triazolo[4,3-a]quinoxaline-4-ylamino)-butyl]-3-methyl-butyramide] | 0.16 | –
≤ 0.05 | 0.017 | COc1cc2nc(NCCCCNC(=O)Cc3ccccc3)c3nnc(C)n3c2cc1OC [Example 86, N-[4-(7,8-dimethoxy-1-methyl-[1,2,4]triazolo[4,3-a]quinoxaline-4-ylamino)-butyl]-2-phenyl-acetamide] | 0.06 | ≤ 0.2
≤ 0.05 | 0.016 | CCOc1ccc2c(c1)nc(NCCCCNC(=O)CC(C)C)c1nnc(C)n12 [Example 442, N-[4-(7-ethoxy-1-methyl-[1,2,4]triazolo[4,3-a]quinoxaline-4-ylamino)-butyl]-3-methyl-butyramide] | 0.11 | ≤ 0.2
≤ 0.01 | 0.003 | Cc1nnc2c(NCCCCNC(=O)OC3CCCC3)nc3cc(-c4nc5ccccc5n4C)ccc3n12 [Example 229, {4-[1-methyl-7-(1-methyl-1H-benzoimidazole-2-yl)-[1,2,4]triazolo[4,3-a]quinoxaline-4-ylamino]-butyl}-carbamic acid cyclopentylester] | 0.15 | ≤ 0.2
